Source: ChEMBL document CHEMBL4765295, “Synthesis, pharmacological profile and 2D-QSAR studies of curcumin-amino acid conjugates as potential drug candidates” (Eur J Med Chem, 2020)
Several values for one entry are separate records, joined by “and”; a condition that tells them apart may be missing. Equal values may be shown once.

Columns and labels:
[1] = test system: Rattus norvegicus; test: Antiinflammatory activity in Wistar rat model of carrageenan-induced paw edema assessed as reduction in thickness of paw edema at 10 mg/kg, ip pretreated for 1 hr followed by carrageenan challenge and measured after 1 hr (reference value: 2.41 +/-0.05 mm); assay type: functional; details: time 1 hr after carrageenan
[2] = test system: Rattus norvegicus; test: Anti-inflammatory activity in Wistar rat assessed as inhibition of carrageenan-induced paw edema at 10 mg/kg, ip pretreated for 1 hr followed by carrageenan challenge and measured after 1 hr relative to control (reference value: 0.00 +/-0.02 %); assay type: functional; details: time 2 hrs
[3] = test system: Rattus norvegicus; test: Antiinflammatory activity in Wistar rat model of carrageenan-induced paw edema assessed as reduction in thickness of paw edema at 10 mg/kg, ip pretreated for 1 hr followed by carrageenan challenge and measured after 2 hrs (reference value: 2.06 +/-0.09 mm); assay type: functional; details: time 3 hrs
[4] = test system: Rattus norvegicus; test: Anti-inflammatory activity in Wistar rat assessed as inhibition of carrageenan-induced paw edema at 10 mg/kg, ip pretreated for 1 hr followed by carrageenan challenge and measured after 2 hr relative to control (reference value: 0.00 +/-0.03 %); assay type: functional; details: time 3 hrs
[5] = test system: Rattus norvegicus; test: Antiinflammatory activity in Wistar rat model of carrageenan-induced paw edema assessed as reduction in thickness of paw edema at 10 mg/kg, ip pretreated for 1 hr followed by carrageenan challenge and measured after 3 hrs (reference value: 1.79 +/-0.07 mm); assay type: functional; details: time 4 hrs
[6] = test system: Rattus norvegicus; test: Anti-inflammatory activity in Wistar rat assessed as inhibition of carrageenan-induced paw edema at 10 mg/kg, ip pretreated for 1 hr followed by carrageenan challenge and measured after 3 hr relative to control (reference value: 0.00 +/-0.1 %); assay type: functional; details: time 4 hrs
[7] = test system: Rattus norvegicus; test: Antiinflammatory activity in Wistar rat model of carrageenan-induced paw edema assessed as reduction in thickness of paw edema at 10 mg/kg, ip pretreated for 1 hr followed by carrageenan challenge and measured after 4 hrs (reference value: 1.40 +/-0.10 mm); assay type: functional; details: time 5 hrs
[8] = test system: Rattus norvegicus; test: Anti-inflammatory activity in Wistar rat assessed as inhibition of carrageenan-induced paw edema at 10 mg/kg, ip pretreated for 1 hr followed by carrageenan challenge and measured after 4 hr relative to control (reference value: 0.00 +/-0.4 %); assay type: functional; details: time 5 hrs
[9] = test system: Rattus norvegicus; test: Antiinflammatory activity in Wistar rat model of carrageenan-induced paw edema assessed as reduction in thickness of paw edema at 10 mg/kg, ip pretreated for 1 hr followed by carrageenan challenge and measured after 24 hrs (reference value: 0.83 +/-0.08 mm); assay type: functional; details: time 25 hrs
[10] = test system: Rattus norvegicus; test: Anti-inflammatory activity in Wistar rat assessed as inhibition of carrageenan-induced paw edema at 10 mg/kg, ip pretreated for 1 hr followed by carrageenan challenge and measured after 24 hr relative to control (reference value: 0.00 +/-0.3 %); assay type: functional; details: time 25 hrs
[11] = test system: Rattus norvegicus; test: Anti-inflammatory activity in Wistar rat assessed as inhibition of carrageenan-induced paw edema at 10 mg/kg, ip pretreated for 1 hr followed by carrageenan challenge and measured after 4 hr relative to indomethacin; assay type: functional; details: time 5 hrs
[12] = Ulcerogenic activity in fasted albino mouse assessed as incidence of gastric ulceration at 10 mg/kg, po for 3 days (reference value: 0 %); assay type: toxicity, organism-based; details: in vivo, 72 h, time 3 day
[13] = Ulcerogenic activity in fasted albino mouse assessed as average number of ulcers in gastric mucosa at 10 mg/kg, po for 3 days (reference value: 0); assay type: toxicity, organism-based; details: in vivo, 72 h, time 3 day
[14] = Ulcerogenic activity in fasted albino mouse assessed as average severity of ulcers in gastric mucosa at 10 mg/kg, po for 3 days (reference value: 0); assay type: toxicity, organism-based; details: in vivo, 72 h, time 3 day
[15] = Ulcerogenic activity in fasted albino mouse assessed as ulcer index in gastric mucosa at 10 mg/kg, po for 3 days (reference value: 0); assay type: toxicity, organism-based; details: in vivo, 72 h, time 3 day
[16] = test system: Splenocyte; test: Immunomodulatory activity in Swiss albino mouse splenocytes assessed as cell viability at 10 uM by measuring stimulation index incubated for 72 hrs in presence of mitogenic stimulus phytohaemagglutinin by MTT assay (reference value: 1.00 +/- 0.24); assay type: functional
[17] = test system: Splenocyte; test: Immunomodulatory activity in Swiss albino mouse splenocytes assessed as cell viability at 10 uM by measuring inhibition of stimulation index incubated for 72 hrs in presence of mitogenic stimulus phytohaemagglutinin by MTT assay relative to indomethacin; assay type: functional; details: read-out: Activity
[18] = test system: Peritoneal macrophage; test: Antiinflammatory activity in […] mouse Peritoneal macrophages assessed as reduction in LPS-induced NO production by measuring reduction in stimulation index at 10 uM preincubated for 1 hr followed by LPS stimulation measured after 24 hrs by Griess method (reference value: 27.31 +/- 2.56 uM); assay type: functional; details: time 25 hrs
[19] = test system: Peritoneal macrophage; test: Antiinflammatory activity in […] mouse Peritoneal macrophages assessed as inhibition of LPS-induced NO production at 10 uM preincubated for 1 hr followed by LPS stimulation measured after 24 hrs by Griess method relative to control (reference value: 0.0 %); assay type: functional; set-up: scale not given: the % may be the effect or the level left; details: time 25 hrs
[20] = test system: Mus musculus; test: Analgesic activity in albino mouse assessed reduction in acetic acid-induced abdominal writhing by measuring writing reflex at 10 mg/kg, ip pretreated for 1 hr followed by acetic acid challenge and measured starting 5 mins post acetic acid challenge for 10 mins (reference value: 42.4 +/- 1.02); assay type: functional; details: time 75 min, 1.25 h
[21] = test system: Mus musculus; test: Analgesic activity in albino mouse assessed protection against acetic acid-induced abdominal writhing at 10 mg/kg, ip pretreated for 1 hr followed by acetic acid challenge and measured starting 5 mins post acetic acid challenge for 10 mins relative to control (reference value: 0 %); assay type: functional; details: time 75 min, 1.25 h
[22] = test system: Mus musculus; test: Analgesic activity in albino mouse assessed protection against acetic acid-induced abdominal writhing at 10 mg/kg, ip pretreated for 1 hr followed by acetic acid challenge and measured starting 5 mins post acetic acid challenge for 10 mins relative to indomethacin; assay type: functional; details: time 75 min, 1.25 h
[23] = test system: Mus musculus; test: Analgesic activity in albino mouse assessed as forepaw licking/jumping latency time at 10 mg/kg, ip measured after 30 mins by hot plate test (reference value: 5.02 +/- 0.09 sec); assay type: functional; details: 0.5 h
[24] = test system: Mus musculus; test: Analgesic activity in albino mouse assessed as protection at 10 mg/kg, ip measured after 30 mins by hot plate test (reference value: 0 %); assay type: functional; details: 0.5 h
[25] = test system: Mus musculus; test: Analgesic activity in albino mouse assessed as forepaw licking/jumping latency time at 10 mg/kg, ip measured after 60 mins by hot plate test (reference value: 3.42 +/- 0.03 sec); assay type: functional; details: 1 h
[26] = test system: Mus musculus; test: Analgesic activity in albino mouse assessed as protection at 10 mg/kg, ip measured after 60 mins by hot plate test (reference value: 0 %); assay type: functional; details: 1 h
[27] = test system: Mus musculus; test: Analgesic activity in albino mouse assessed as forepaw licking/jumping latency time at 10 mg/kg, ip measured after 90 mins by hot plate test (reference value: 2.72 +/- 0.01 sec); assay type: functional; details: 1.5 h
[28] = test system: Mus musculus; test: Analgesic activity in albino mouse assessed as protection at 10 mg/kg, ip measured after 90 mins by hot plate test (reference value: 0 %); assay type: functional; details: 1.5 h
[29] = test system: Mus musculus; test: Analgesic activity in albino mouse assessed as forepaw licking/jumping latency time at 10 mg/kg, ip measured after 120 mins by hot plate test (reference value: 2.62 +/- 0.06 sec); assay type: functional; details: 2 h
[30] = test system: Mus musculus; test: Analgesic activity in albino mouse assessed as protection at 10 mg/kg, ip measured after 120 mins by hot plate test (reference value: 0 %); assay type: functional; details: 2 h
[31] = test system: Mus musculus; test: Analgesic activity in albino mouse assessed as protection at 10 mg/kg, ip measured after 120 mins by hot plate test relative to indomethacin; assay type: functional; details: 2 h
[32] = test system: Staphylococcus aureus; test: Antibacterial activity against Staphylococcus aureus ATCC 25923 incubated for 18 hrs by agar dilution method; assay type: functional
[33] = test system: Streptococcus pyogenes; test: Antibacterial activity against Streptococcus pyogenes ATCC 19615 incubated for 18 hrs by agar dilution method; assay type: functional
[34] = test system: Salmonella typhimurium; test: Antibacterial activity against Salmonella typhimurium ATCC 19430 incubated for 18 hrs by agar dilution assay; assay type: functional, Salmonella enterica subsp. enterica serovar Typhimurium; details: Salmonella enterica
[35] = test system: Pseudomonas aeruginosa; test: Antibacterial activity against Pseudomonas aeruginosa ATCC 27853 incubated for 18 hrs by agar dilution assay; assay type: functional
[36] = test system: Candida albicans; test: Antifungal activity against Candida albicans incubated for 18 to 24 hrs by CLSI method; assay type: functional; details: time 18-24 hrs
[37] = test system: A549; test: Antiproliferative activity against human A549 cells assessed as inhibition of cell growth after 72 hrs by MTT assay; assay type: functional, cell-based; details: A549, 72 h
[38] = test system: MCF7; test: Antiproliferative activity against human MCF7 cells assessed as inhibition of cell growth after 72 hrs by MTT assay; assay type: functional, cell-based; details: MCF7, 72 h
[39] = test system: PC-3; test: Antiproliferative activity against human PC3 cells assessed as inhibition of cell growth after 72 hrs by MTT assay; assay type: functional, cell-based; details: PC-3, 72 h
[40] = Toxicity in albino mouse assessed as induction of toxic symptoms at 50 to 100 mg/kg, ip measured after 24 hrs; assay type: organism-based; details: in vivo, dose 50-100 mg/kg

Row | SMILES | Activity [1] [mm] | inhibition in vivo at 10 mg/kg [2] [%] | Activity [3] [mm] | inhibition in vivo at 10 mg/kg [4] [%] | Activity [5] [mm] | inhibition in vivo at 10 mg/kg [6] [%] | Activity [7] [mm] | inhibition in vivo at 10 mg/kg [8] [%] | Activity [9] [mm] | inhibition in vivo at 10 mg/kg [10] [%] | inhibition in vivo at 10 mg/kg [11] [%] | Activity [12] [%] | Activity [13] | Activity [14] | UI [15] | Activity_index [16] | viability at 10 µM [17] [%] | Activity [18] [µM] | Activity [19] [%] | Activity [20] | other results
1 | COc1cc(/C=C/C(=O)/C=C(O)/C=C/c2ccc(OC(=O)[C@@H](C)N)c(OC)c2)ccc1OC(=O)[C@@H](C)N.Cl.Cl | 0.95 | 61 | 0.79 | 62 | 0.46 | 74 | 0.06 | 96 | 0.59 | 29 | 110 | 0 | 0 | 0 | 0 | 1.35 | 89.6 | 16.04 | 41.26 | 13.8 | Activity [21]: 67.5%; Activity [22]: 109.6%; Time [23]: 5.3 s; Activity [24]: 5.6%; Time [25]: 5.82 s; Activity [26]: 70.2%; Time [27]: 4.72 s; Activity [28]: 73.5%; Time [29]: 4.02 s; Activity [30]: 53.4%; Activity [31]: 127.1%; MIC [32]: 0.125 µg/mL and 0.214 µM; MIC [33]: 0.25 µg/mL and 0.428 µM; MIC [34]: 0.25 µg/mL and 0.428 µM; MIC [35]: 1 µg/mL and 1.71 µM; MIC [36]: 0.125 µg/mL and 0.214 µM; IC50 [37]: 30.9 µM; IC50 [38]: 10.4 µM; IC50 [39]: 30.7 µM; Activity [40]: Non-Toxic
2 | COc1cc(/C=C/C(=O)/C=C(O)/C=C/c2ccc(OC(=O)CN)c(OC)c2)ccc1OC(=O)CN.Cl.Cl | 0.82 | 66 | 0.69 | 67 | 0.46 | 74 | 0.17 | 88 | 0.48 | 42 | 101 | 0 | 0 | 0 | 0 | 0.99 | 122 | 13.66 | 49.98 | 14.6 | Activity [21]: 65.6%; Activity [22]: 106.5%; Time [23]: 5.04 s; Activity [24]: 0.4%; Time [25]: 4.28 s; Activity [26]: 25.1%; Time [27]: 3.66 s; Activity [28]: 34.6%; Time [29]: 3.52 s; Activity [30]: 34.4%; Activity [31]: 81.9%; MIC [32]: 0.5 µg/mL and 0.9 µM; MIC [33]: 0.25 µg/mL and 0.45 µM; MIC [34]: 0.25 µg/mL and 0.45 µM; MIC [35]: 1 µg/mL and 1.8 µM; MIC [36]: 1 µg/mL and 1.8 µM; IC50 [37]: 18.9 µM; IC50 [38]: 9.15 µM; IC50 [39]: 38.7 µM; Activity [40]: Non-Toxic
